Measured values reported in patent US11161881B2, “Composition comprising a peptide and an inhibitor of viral neuraminidase” (priority 2010, dated 2021).

Experiments:
[1] = tested on: interleukin-6 (IL-6) release from fresh human whole blood; experiment: Ex vivo release of interleukin-6 from fresh human whole blood (ELISA); type: cell-based; settings: for concentration of IL-6: human whole blood cultures, 24 hours, n = 5
From the text: Ex vivo assessment of proinflammatory properties of the AP301 peptide in human whole blood. […] In this study, fresh human whole blood has been used, as it represents an approved predictive model system for the assessment of inflammatory response in vivo.
Summary of methodology. It was the goal of this study to determine the proinflammatory signalling capacity of the peptide AP301. Whole blood cultures were used and the secretion of interleukin-6 (IL-6), a very sensitive marker for proinflammatory stimulation, was quantified by ELISA.
Test system 25 ml of freshly taken heparinized blood from • 5 healthy volunteers (HV) was used in the tests. […]
Whole blood cultures. Whole blood (WB) cultures are performed by pipetting 1 ml WB into wells of 24-well-plates. In each experiment, unstimulated and control-stimulated cultures were included.
If possible, the substances and stimulants to be investigated were always added in an identical volume to each well of a given experiment, which is not greater than 10% of the total volume contained in a well. Unstimulated controls received PBS. Volume adjustments and dilutions for different treatments were also done with PBS.
The content of each well was mixed and the plates incubated at 37° C. and 5% CO2 for 24 hours. After incubation the content of each well was transferred to a fresh 1.5 ml microtube and centrifuged at 8,000-9,000×g for 15 minutes. The supernatant of each sample was transferred individually to two 1.5 ml microtubes and kept at −20° C. until use.
Detection of interleukin-6. Interleukin-6 was quantified by a specific ELISA (Human IL-6 ELISA Set, BD Biosciences, Cat. No. 555220) employing an anti-human IL-6 antibody as capture antibody, a biotinylated anti-human IL-6 detection antibody, avidin-horseradish peroxidase conjugate as enzyme reagent and recombinant IL-6 as standard. Absorbance measurement was performed at 450 nm using the Packard FusionReader.
Data analysis. The results for each plate were stored and evaluated using the FusionDataAnalysis Software. […]

[2] = tested on: influenza strain A (PR8/34); experiment: Relative lung weight as a measure of pulmonary inflammation in mice infected with influenza A; type: in vivo, mice (strain C57BL/6); settings: repeated on days 2 and 4
Method: Infection with influenza virus causes the development of a pulmonary inflammation. Laboratory mice (strain C57BL/6, 8 weeks old) were infected per-nasal with the influenza strain A (PR8/34) at a dose of 150 PFU. On days 3, 5, 7 and 9 following the infection, the lungs were taken out of 8 mice, respectively, and the relative lung weight was determined as a measure of the pulmonary inflammation.
Treatment of the pulmonary inflammation by administering the neuraminidase inhibitor or administering a combination of neuraminidase inhibitor and peptide AP301. Laboratory mice (strain C57BL/6, 8 weeks old) were infected per-nasal with the influenza strain A (PR8/34) at a dose of 150 PFU. Subsequently, each test animal received an oral administration of 10 mg/kg Oseltamivir (neuraminidase inhibitor) and an intratracheal administration of 10 μg/test animal of peptide AP301. The treatment was repeated on test days 2 and 4. On days 5, 7 and 9 following the infection, the lungs were taken out of 30 mice, respectively, and the relative lung weight was determined as a measure of the pulmonary inflammation. The results are shown graphically in FIG. 2. […]
On days 7 and 9 following the infection, the lungs were taken out of 20 mice, respectively, and the relative lung weight was determined as a measure of the pulmonary inflammation. […]

C[C@@H]1NC(=O)CNC(=O)[C@H](CCC(=O)O)NC(=O)[C@@H]2CCCN2C(=O)[C@H]([C@@H](C)O)NC(=O)[C@H](CCC(=O)O)NC(=O)[C@H](CCCNC(=N)N)NC(=O)[C@H](CCC(N)=O)NC(=O)CNC(=O)[C@@H](N)CSSC[C@@H](C(=O)O)NC(=O)[C@H](Cc2ccc(O)cc2)NC(=O)[C@H](Cc2c[nH]c3ccccc23)NC(=O)[C@@H]2CCCN2C(=O)[C@H](CCCCN)NC(=O)[C@H](C)NC(=O)[C@H](CCC(=O)O)NC1=O [AP301, (NH2) Cys-Gly-Gln-Arg-Glu-Thr-Pro-Glu-Gly-Ala-Glu-Ala-Lys-Pro-Trp-Tyr-Cys (COOH)]
induction of IL-6 secretion (in words) ([1]; all concentrations tested (10 μg/ml to 1 ng/ml for peptide; high and low doses of LPS), five healthy donors): did not induce any detectable level of IL-6 secretion
TNF receptor binding activity / proinflammatory response (concluded from IL-6 release) ([1]; ex vivo human whole blood model): does not exhibit any TNF receptor binding activity
concentration of IL-6 ([1]; test item concentration 1 ng/ml): less than 0.5 pg/ml
concentration of IL-6 ([1]; test item concentration 3 ng/ml): less than 0.5 pg/ml
concentration of IL-6 ([1]; test item concentration 1 mg/ml): less than 0.5 pg/ml
concentration of IL-6 ([1]; test item concentration 10 mg/ml): less than 0.5 pg/ml

CCOC(=O)C1=C[C@@H](OC(CC)CC)[C@H](NC(C)=O)[C@@H](N)C1 [Oseltamivir]
reduction of pulmonary inflammation, as measured by the lung weight ([2]; Example 2: 150 PFU per-nasal, Oseltamivir 10 mg/kg oral, AP301 10 μg/test animal intratracheal, lungs on days 5, 7 and 9): just a moderate effect on reducing the pulmonary inflammation

CC(=O)N[C@H]1[C@H]([C@H](O)[C@H](O)CO)OC(C(=O)O)=C[C@@H]1N=C(N)N [Zanamivir]
reduction of pulmonary inflammation, as measured by the lung weight ([2]; Example 4: 150 PFU per-nasal, Zanamivir 1.5 mg/kg nasal, AP301 50 μg/test animal intratracheal, lungs on days 7 and 9): just a moderate effect on reducing the pulmonary inflammation
